From patent US20240219374A1, “A Triple Co-Culture System for Drug Screening of Patient-Derived Cancer Cells and Methods of Use” (OncoPrecision Corporation, priority 2021, published 2024)

Key:
[1] = system: TC cells (human bone marrow stroma cell line HS-5, Cayenne-RFP); assay: Triple co-culture drug test (DART), flow cytometry: Tox Control cells; type: cell-based; conditions: for cytotoxic effect on the TC cells: Example 8, FIG. 9A, Panobinostat 5 nM, Cytarabine 22 nM + Daunorubicine 41 nM, Venetoclax 1.6 μM
Excerpt: DMSO treated wells were used as controls.

[2] = system: PDC cells from patient OP #23 (acute myeloid leukemia); assay: Triple co-culture drug test (DART), flow cytometry: PDC cells of patient OP #23; conditions: for cytotoxic effect on the PDC cells: Example 8, FIG. 9A, 6 days, Panobinostat 5 nM, Cytarabine 22 nM + Daunorubicine 41 nM, Venetoclax 1.6 μM, PDC:SC:TC 10:1:1
PDCs from an AML patient = assay: Magnetically printed 3D tumoroid triple co-culture, flow cytometry: PDCs; type: cell-based, human; conditions: 3D tumoroids; Cytarabine 200 nM; 6 days; 10,000 PDC, 3,000 SC, 8,000 TC cells
Procedure: (§1) The 3D tumoroid was formed with or without extracellular matrix (ECM) embedded in culture media. […] On day 1, when the tumoroids were in a fully compact 3D configuration, the multiwell plates containing the tumoroid replicas (1 per well) were subjected to a matrix of treatments, including mono-drugs and combinations.
(§2) Magnetically printed 3D patient-micro-avatars (PMAs) using PDCs from an AML patient were prepared. PDCs from a bone marrow aspirate were processed by Ficoll-Paque to isolate the PBMC fraction, which was printed into 3D tumoroids in co-culture with SC cells and TC cells. Particularly, 10,000 PDC cells were mixed with 3,000 SC cells, and 8,000 TC cells.
(§3) 3D tumoroids so formed were treated for 6 days with vehicle or Cytarabine at 200 nM. […] At the end of the treatment, tumoroids were analyzed first by florescence microscopy (left panel of FIG. 12B). The tumoroids were subsequentially disaggregated mechanically and analyzed by flow cytometry to quantify the surviving fraction of PDCs, SC cells, and TC cells (right panel of FIG. 12B).

SC cells = assay: Magnetically printed 3D tumoroid triple co-culture, flow cytometry: SC cells; type: cell-based; conditions: 3D tumoroids; Cytarabine 200 nM; 6 days
Procedure: as §1, §2, §3

TC cells = assay: Magnetically printed 3D tumoroid triple co-culture, flow cytometry: TC cells; type: cell-based; conditions: 3D tumoroids; Cytarabine 200 nM; 6 days
Procedure: as §1, §2, §3

Q: `Cc1[nH]c2ccccc2c1CCNCc1ccc(/C=C/C(=O)NO)cc1` [Panobinostat] was tested. Which “cytotoxic effect on the TC cells” value ([1]; 6 days) did it give?
A: neither the PDC cells nor the TC cells showed a response

Q: And the “cytotoxic effect on the PDC cells” value [2]?
A: neither the PDC cells nor the TC cells showed a response

Q: With `CC1(C)CCC(CN2CCN(c3ccc(C(=O)NS(=O)(=O)c4ccc(NCC5CCOCC5)c([N+](=O)[O-])c4)c(Oc4cnc5[nH]ccc5c4)c3)CC2)=C(c2ccc(Cl)cc2)C1` [Venetoclax] as the compound, how does the “cytotoxic effect on the TC cells” value ([1]; 6 days) read?
A: no cytotoxic effect

Q: And the “cytotoxic activity on the TC cells” value ([1]; Example 9, FIG. 9C, four doses, 6 days)?
A: no cytotoxic activity

Q: And the “effects on the TC cells” value ([1]; Example 12, FIG. 11B)?
A: exerted effects

Q: What about the “cytotoxic effect on the PDC cells” value [2] of the same compound?
A: strong cytotoxic effect

Q: And the “cytotoxic effects on the PDC cells” value ([2]; Example 12, FIG. 11B, top drugs alone or combined at the lowest dose, standard care in parallel)?
A: cytotoxic effects

Q: Which “cytotoxic effects on the cancer cells (PDCs)” value (PDCs from an AML patient) does the source give for `Nc1ccn([C@@H]2O[C@H](CO)[C@@H](O)[C@@H]2O)c(=O)n1` [cytarabine, Cytarabine] here?
A: strong cytotoxic effects

Q: And the “cytotoxic effects on the SC cells” value (SC cells)?
A: strong cytotoxic effects

Q: What about the “cytotoxicity on the TC cells” value (TC cells) of the same compound?
A: moderate cytotoxicity
